Experimental data from patent US20260232666A1, “COMPOSITIONS AND METHODS FOR INHIBITION OF RAS” (TheRas, Inc., priority 2023, published 2026).

Key:
pERK in NCI-H358 cells = assay: Cell-based pERK HTRF assay (pERK inhibition in H358 cells); settings: 30 min incubation
Summary of the method: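 NCI-H358 cells were seeded at 4×10^4 cells/well in RPMI/10% FBS, then treated next day for 30 min at 0.25% DMSO (9-point, 3-fold series from 75 μM). Lysates were read by HTRF (d2/Eu cryptate antibody pair, 615 nm emission) after 4–24 h at room temperature to give pERK IC50.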

[1] = biological target: T1, Avi-KRAS G12C (1-169) GppNHp/RAF1 RBD-3×FLAG (52-151) (Homo sapiens, UniProt P01116, G12C); assay: Raf1 RBD-KRAS G12C-GppNHp disruption assay (protein:protein interaction HTRF); assay type: biochemical
T1 construct: Avi-KRAS G12C (1-169) GppNHp; Avi (N)
Protocol: Biological Example 2: Disrupting KRAS G12C-Effector Binding (Protein: Protein Interaction HTRF Assay)
A protein: protein interaction (PPI) Homogeneous Time Resolved Fluorescence (HTRF) assay was used to determine the effectiveness of compounds of the present disclosure in disrupting KRAS G12C protein and effector (RAF1 Ras Binding Domain (RBD)) binding.
The HTRF assay used the following reagents and proteins: 50 nM Avi-KRAS G12C (1-169) GppNHp/RAF1 RBD-3×FLAG (52-151); 35 nM Avi-PI3K RBD-3×FLAG; Assay Buffer: 50 mM Tris pH 7.5, 100 mM NaCl, 5 mM MgCl2, 0.1% BSA, 0.01% Tween 20, 10% DMSO; Bead Buffer: 50 mM Tris pH 7.5, 0.01% Tween 20; Assay volume: 20 μL (384 well plate-low volume format); and Compound titration: 30-0.02 μM, 3× dilution series.
The HTRF assay employed the following protocol:
Compounds were dispensed in assay plate (384-well, Grenier Bio-One #784075) using Echo (model 555) with dose response settings: 200 nL final volume, titration from 100 μM as a 10-point dilution series. KRAS proteins were prepared in assay buffer, and dispensed on plates, 5 μL per well, then incubated for 1 h at room temperature, with 700 rpm shaking. RAF1 RBD were prepared in assay buffer, dispensed onto plates, 5 μL per well, and then incubated for 1 h at room temperature, with 700 rpm shaking. Reagent mix was then prepared and dispensed on plates, 10 μL per well, and then incubated for 1 h at room temperature, with 700 rpm shaking.
Plates were analyzed on an Envision plate reader using the following setting: Excitation 320 nm, Bandwidth 75 nm; Emission 615 nm, Bandwidth 85 nm; Gain 100%; Flashes 100; Lag 60 μs. Data was reported as percentage of activity, with DMSO as 100%. Data was plotted and analyzed using Prism 8.
The percent of modification of GppNHp, GTP, or GDP loaded KRAS G12C by MALDI-TOF MS, biochemical Raf1 RBD-KRAS G12C-GppNHp disruption assay IC50, and pERK inhibition IC50 of selected compounds described herein are shown in Table 4. For percent of modification at 15 minutes (MALDI-TOF MS) of GppNHp, GTP, or GDP loaded KRAS G12C: A: percent of modification ≥70%; B: 50≤percent of modification <70%; C: 10%≤percent of modification <50%; D: percent of modification <10%. […] For pERK inhibition in H358 cell assay: A: IC50≤0.1 μM; B: 0.1 μM<IC50≤1 μM; C: IC50>1 μM. Blanks in the table represent that compound was not tested in the indicated assay.

[2] = biological target: T2, GDP-loaded KRAS4b (amino acids 1-169) G12C/C118S protein (Homo sapiens, UniProt P01116, C118S/G12C); assay: Covalent cysteine 12 modification by MALDI-TOF MS, GDP-loaded KRAS G12C; assay type: binding; settings: 15 minutes reaction time point
T2 construct: KRAS4b (amino acids 1-169) G12C/C118S protein; made in house
Summary of the method: (§1)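 Covalent adduct formation measured by linear-mode MALDI-TOF MS as modified peak height over summed peak heights, 15 min time point reported. Reactions: KRAS4b 1-169 G12C/C118S (1 μM, loaded with GppNHp, GTP or GDP) plus compound at 1:2.5 ratio, pH 7.3 HEPES/NaCl/MgCl2, room temperature.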

[3] = biological target: T3, GTP-loaded KRAS4b (amino acids 1-169) G12C/C118S protein (Homo sapiens, UniProt P01116, C118S/G12C); assay: Covalent cysteine 12 modification by MALDI-TOF MS, GTP-loaded KRAS G12C; assay type: binding; settings: 15 minutes reaction time point
T3 construct: KRAS4b (amino acids 1-169) G12C/C118S protein; made in house
Summary of the method: as §1

[4] = biological target: T4, GppNHp-loaded KRAS4b (amino acids 1-169) G12C/C118S protein (Homo sapiens, UniProt P01116, C118S/G12C); assay: Covalent cysteine 12 modification by MALDI-TOF MS, GppNHp-loaded KRAS G12C; assay type: binding; settings: 15 minutes reaction time point
T4 construct: KRAS4b (amino acids 1-169) G12C/C118S protein; made in house
Summary of the method: as §1

SMILES: C=CC(=O)N1CC[C@@H](N(C)c2nc(OC[C@@]34CCCN3C[C@H](F)C4)nc3c(F)c(-c4ccc(F)c5sc(N)c(C#N)c45)c(C(F)(F)F)cc23)[C@@H]1C (atropisomer, axis not shown) [Compound 71]
- IC50 (pERK in NCI-H358 cells): 100 to 1000 nM
- IC50 [1]: 500 to 5000 nM

SMILES: C=CC(=O)N1CC[C@H](N(C)c2nc(OC[C@@]34CCCN3C[C@H](F)C4)nc3c(F)c(-c4ccc(F)c5sc(N)c(C#N)c45)c(C(F)(F)F)cc23)[C@@H]1C [Compound 5]
- GDP-KRAS G12C percent of modification [2]: A (percent of modification ≥70%)
- IC50 [1]: < 500 nM

SMILES: C=CC(=O)N1CC[C@@H](N(C)c2nc(OC[C@@]34CCCN3C[C@H](F)C4)nc3c(F)c(-c4ccc(F)c5sc(N)c(C#N)c45)c(C(F)(F)F)cc23)[C@H]1C [Compound 6]
- GTP-KRAS G12C percent of modification [3]: C (10%≤percent of modification <50%)
- GDP-KRAS G12C percent of modification [2]: B (50≤percent of modification <70%)
- IC50 [1]: < 500 nM

SMILES: C=CC(=O)N1CC[C@@H](N(C)c2nc(OC[C@@]34CCCN3C[C@H](F)C4)nc3cc(-c4ccc(F)c5sc(N)c(C#N)c45)c(F)cc23)[C@H]1C [Compound 15]
- IC50 [1]: < 500 nM

SMILES: C=CC(=O)N1CC[C@@H](N(C)c2nc(OC[C@@]34CCCN3C[C@H](F)C4)nc3cc(-c4ccc(F)c5sc(N)c(C#N)c45)c(C#N)cc23)[C@H]1C [Compound 16]
- IC50 (pERK in NCI-H358 cells; Homo sapiens, NCI-H358, 0.5 h): < 100 nM
- IC50 [1]: < 500 nM

SMILES: C=CC(=O)N1CC[C@@H](N(C)c2nc(OC[C@@H]3CCCN3C)nc3c(F)c(-c4ccc(F)c5sc(N)c(C#N)c45)c(C(F)(F)F)cc23)[C@@H]1C [Compound 38]
- IC50 (pERK in NCI-H358 cells; Homo sapiens, NCI-H358, 0.5 h): < 100 nM
- IC50 [1]: < 500 nM
- GppNHp-KRAS G12C percent of modification [4]: A (percent of modification ≥70%)

SMILES: C=CC(=O)N1CC[C@@H](N(C)c2nc(OC[C@@]34CCCN3C[C@H](F)C4)nc3c(F)c(-c4ccc(F)c5sc(N)c(C#N)c45)ccc23)[C@@H]1C [Compound 43]
- IC50 (pERK in NCI-H358 cells; Homo sapiens, NCI-H358, 0.5 h): < 100 nM
- IC50 [1]: < 500 nM
- GppNHp-KRAS G12C percent of modification [4]: A (percent of modification ≥70%)

SMILES: C=CC(=O)N1CC[C@@H](N(C)c2nc(OC[C@@H]3CCCN3CC)nc3c(F)c(-c4ccc(F)c5sc(N)c(C#N)c45)c(Cl)cc23)[C@H]1C [Compound 89]
- IC50 (pERK in NCI-H358 cells; Homo sapiens, NCI-H358, 0.5 h): < 100 nM
- GDP-KRAS G12C percent of modification [2]: A (percent of modification ≥70%)
- IC50 [1]: < 500 nM

SMILES: [2H]C1([2H])CCC2(C([2H])([2H])Oc3nc(N4CC(C)N(C(=O)C=C)CC4C)c4cc(C(F)(F)F)c(-c5ccc(F)c6sc(N)c(C#N)c56)c(F)c4n3)CC(F)CN12 (stereo not drawn) [Compound 96]
- IC50 (pERK in NCI-H358 cells; Homo sapiens, NCI-H358, 0.5 h): < 100 nM
- IC50 [1]: < 500 nM

SMILES: [2H]C1([2H])CN2C[C@H](F)C[C@]2(COc2nc(N(CC)[C@@H]3CCN(C(=O)C=C)[C@@H]3C)c3cc(F)c(-c4ccc(F)c5sc(N)c(C#N)c45)cc3n2)C1 [Compound 123]
- IC50 (pERK in NCI-H358 cells; Homo sapiens, NCI-H358, 0.5 h): < 100 nM
- IC50 [1]: < 500 nM

SMILES: [2H]C1([2H])CN2C[C@H](F)C[C@]2(COc2nc(N3C[C@@H](C)N(C(=O)C=C)C[C@@H]3C)c3cc(C(F)(F)F)c(-c4ccc(F)c5sc(N)c(C#N)c45)c(F)c3n2)C1 [Compound 125]
- IC50 [1]: < 500 nM
- GppNHp-KRAS G12C percent of modification [4]: A (percent of modification ≥70%)

SMILES: [2H]C1([2H])CN2C[C@H](F)C[C@]2(COc2nc(N(C)[C@@H]3CCN(C(=O)C=C)[C@@H]3C)c3cc(C(F)(F)F)c(-c4ccc(F)c5sc(N)c(C#N)c45)c(F)c3n2)C1 [Compound 128, 4-(4-(((2R,3R)-1-acryloyl-2-methylpyrrolidin-3-yl)(methyl)amino)-8-fluoro-2-(((2R,7aS)-2-fluorotetrahydro-1H-pyrrolizin-7a(5H)-yl-6,6-d2)methoxy)-6-(trifluoromethyl)quinazolin-7-yl)-2-amino-7-fluorobenzo[b]thiophene-3-carbonitrile]
- IC50 (pERK in NCI-H358 cells; Homo sapiens, NCI-H358, 0.5 h): < 100 nM
- IC50 [1]: < 500 nM
- GppNHp-KRAS G12C percent of modification [4]: A (percent of modification ≥70%)

SMILES: C=CC(=O)N1CC[C@@H](N(C)c2nc(OC[C@]34CCCN3C[C@H](F)C4)nc3c(F)c(-c4ccc(F)c5sc(N)c(C#N)c45)c(C(F)(F)F)cc23)[C@H]1C [Compound 157]
- IC50 (pERK in NCI-H358 cells; Homo sapiens, NCI-H358, 0.5 h): < 100 nM
- IC50 [1]: < 500 nM

SMILES: C=CC(=O)N1CC[C@@H](N(C)c2nc(OC[C@@]34CCCN3C[C@H](OC)C4)nc3c(F)c(-c4ccc(F)c5sc(N)c(C#N)c45)c(Cl)cc23)[C@H]1C [Compound 160]
- IC50 (pERK in NCI-H358 cells; Homo sapiens, NCI-H358, 0.5 h): < 100 nM
- GTP-KRAS G12C percent of modification [3]: A (percent of modification ≥70%)
- IC50 [1]: < 500 nM

SMILES: C=CC(=O)N1CC[C@@H](N(C)c2nc(OC[C@]34CCCN3C[C@H](F)C4)nc3c(F)c(-c4ccc(F)c5sc(N)c(C#N)c45)c(Cl)cc23)[C@H]1C [Compound 162]
- IC50 (pERK in NCI-H358 cells; Homo sapiens, NCI-H358, 0.5 h): < 100 nM
- IC50 [1]: < 500 nM
- GppNHp-KRAS G12C percent of modification [4]: A (percent of modification ≥70%)

SMILES: C=CC(=O)N1CC[C@@H](N(CC)c2nc(OC[C@]34CCCN3C[C@H](F)C4)nc3c(F)c(-c4ccc(F)c5sc(N)c(C#N)c45)ccc23)[C@H]1C [Compound 170]
- IC50 (pERK in NCI-H358 cells; Homo sapiens, NCI-H358, 0.5 h): < 100 nM
- IC50 [1]: < 500 nM
- GppNHp-KRAS G12C percent of modification [4]: A (percent of modification ≥70%)

SMILES: C=CC(=O)N1CC[C@@H](N(C)c2nc(OC[C@@H]3CC(=C(F)F)CN3C)nc3c(F)c(-c4ccc(F)c5sc(N)c(C#N)c45)c(C(F)(F)F)cc23)[C@H]1C [Compound 205]
- IC50 (pERK in NCI-H358 cells; Homo sapiens, NCI-H358, 0.5 h): < 100 nM
- GTP-KRAS G12C percent of modification [3]: C (10%≤percent of modification <50%)
- GDP-KRAS G12C percent of modification [2]: C (10%≤percent of modification <50%)
- GppNHp-KRAS G12C percent of modification [4]: B (50≤percent of modification <70%)

SMILES: C=CC(=O)N1CCC(N(C)c2nc(OC(C)C3CC(=C(F)F)CN3C)nc3c(F)c(-c4ccc(F)c5sc(N)c(C#N)c45)c(Cl)cc23)C1C (stereo not drawn) [Compound 206]
- IC50 (pERK in NCI-H358 cells; Homo sapiens, NCI-H358, 0.5 h): 100 to 1000 nM
- GTP-KRAS G12C percent of modification [3]: B (50≤percent of modification <70%)
- GDP-KRAS G12C percent of modification [2]: A (percent of modification ≥70%)
- GppNHp-KRAS G12C percent of modification [4]: A (percent of modification ≥70%)

SMILES: C=CC(=O)N1CC[C@@H](N(C)c2nc(O[C@@H](C)[C@@H]3C(=C(F)F)CCN3C)nc3c(F)c(-c4ccc(F)c5sc(N)c(C#N)c45)c(C(F)(F)F)cc23)[C@H]1C [Compound 207]
- IC50 (pERK in NCI-H358 cells; Homo sapiens, NCI-H358, 0.5 h): < 100 nM
- GTP-KRAS G12C percent of modification [3]: C (10%≤percent of modification <50%)
- GDP-KRAS G12C percent of modification [2]: B (50≤percent of modification <70%)
- GppNHp-KRAS G12C percent of modification [4]: B (50≤percent of modification <70%)
